Experimental data: US12344614B2, “Benzodiazepine derivatives as GABA a GAMMA1 PAM” (Hoffmann-La Roche Inc., priority 2021, dated 2025)
Where two headings read alike, the source gives them in different places.

Tests used:
h-GABA-A α2β2γ1 receptor = h-GABA-A α2β2γ1 receptor (Homo sapiens (Human), UniProt P47869+Q8N1C3); test: Two-electrode voltage clamp electrophysiology in Xenopus oocytes expressing GABAA receptors; assay type: cell-based; details: for Efficacy (GABA) %: % modulation of GABA EC20 = 100*(Fold increase−1), compound at 30-fold Ki α2β2γ1; for Fold increase h-GABA-A α2β2γ1 oocyte @ 30-fold Ki: Xenopus oocytes, GABA EC20, test compound at approx. 30-fold its Ki α2β2γ1
Protocol: Xenopus laevis oocytes at maturation stages V-VI were used for the expression of cloned mRNA encoding GABAA receptor subunits. Oocytes ready for RNA micro-injection were bought from Ecocyte, Castrop-Rauxel, Germany and stored in modified Barth's medium (composition in mM: NaCl 88, KCl 1, NaHCO3 2.4, HEPES 10, MgSO4 0.82, CaNO3 0.33, CaCl2 0.33, pH=7.5) at 20° C. until the experiment.
Oocytes were plated in 96-well plates for microinjection using the Roboinject automated instrument (MultiChannelSystems, Reutlingen, Germany). Approximately 50 nL of an aqueous solution containing the RNA transcripts for the subunits of the desired GABAA receptor subtype was injected into each oocyte. […] Oocytes were kept in modified Barth's medium (composition in mM: NaCl 88, KCl 1, NaHCO3 4, HEPES 10, MgSO4 0.82, CaNO3 0.33, CaCl, 0.33, pH=7.5) at 20° C. until the experiment.
Electrophysiological experiments were performed using the Roboocyte instrument (MultiChannelSystems, Reutlingen, Germany) on days 3 to 5 after the micro-injection of mRNA. During the experiment the oocytes were constantly superfused by a solution containing (in mM) NaCl 90, KCl 1, HEPES 5, MgCl2 1, CaCl2 1 (pH 7.4). Oocytes were impaled by two glass microelectrodes (resistance: 0.5-0.8 MΩ) which were filled with a solution containing KCl 1M+K-acetate 1.5 M and voltage-clamped to −80 mV. The recordings were performed at room temperature using the Roboocyte two-electrode voltage clamp system (Multichannelsystem). After an initial equilibration period of 1.5 min GABA was added for 1.5 min at a concentration evoking approximately 20% of a maximal current response (EC2O). After another rest interval of 2.5 min GABA was again added evoking a response of similar amplitude and shape. […] Current traces were recorded at a digitization rate of 10 Hz during and shortly before and after the GABA application.
Each compound and concentration was tested on at least 3 oocytes. Different oocytes were used for different compound concentrations.
For the analysis, the digitized current traces of the first and second GABA response were superimposed and, if necessary, rescaled to equal maximal amplitudes. The ratio between the two responses during the time interval of test compound application was calculated point by point. The extremum of the resulting “ratio trace” was taken as the efficacy (“Fold increase”) of the compound expressed as “% modulation of GABA EC20” (100*(Fold increase−1)).

[1] = target: human GABAA α1β2γ1 receptor (Homo sapiens (Human), UniProt P14867+Q8N1C3); test: Radioligand binding assay, competition for [3H]RO7239181, membranes from HEK293F cells

Row | SMILES | Efficacy (GABA) % (h-GABA-A α2β2γ1 receptor) | Fold increase h-GABA-A α2β2γ1 oocyte @ 30-fold Ki (h-GABA-A α2β2γ1 receptor) | Ki [1] | Ki ([1]; read-out: Ki h-GABAA α1β2γ1, [3H]RO7239181 20-30 nM, HEK293F membranes, 1 hour at 4° C., mean of two determinations)
1 | C[C@@H]1N=C(c2nc(O)ccc2F)c2c(ccc(C(F)(F)F)c2Cl)-n2c1nc1c2CCC1 [Example 24, 6-[(10S)-6-chloro-10-methyl-5-(trifluoromethyl)-1,9,12-triazatetracyclo[9.6.0.02,7.013,17]heptadeca-2(7),3,5,8,11,13(17)-hexaen-8-yl]-5-fluoro-pyridin-2-ol] | 64% | 1.64 | – | –
2 | Oc1ccc(F)c(C2=NCc3nncn3-c3ccc(C(F)(F)F)c(Cl)c32)c1 [Example 10, 3-[7-chloro-8-(trifluoromethyl)-4H-[1,2,4]triazolo[4,3-a][1,4]benzodiazepin-6-yl]-4-fluoro-phenol] | 73% | 1.73 | – | –
3 | Cc1ccc2c(c1Cl)C(c1cc(O)ccc1F)=NCC(=O)N2C [Example 2, 6-chloro-5-(2-fluoro-5-hydroxy-phenyl)-1,7-dimethyl-3H-1,4-benzodiazepin-2-one] | 70% | 1.70 | 3.49 nM | –
4 | Cc1nc2n(n1)-c1ccc(C(F)(F)F)c(Cl)c1C(c1nc(O)ccc1F)=N[C@H]2C [Example 25, 6-[(4S)-7-chloro-2,4-dimethyl-8-(trifluoromethyl)-4H-[1,2,4]triazolo[1,5-a][1,4]benzodiazepin-6-yl]-5-fluoro-pyridin-2-ol] | 45% | 1.45 | 25.3 nM | –
5 | Cc1nnc2n1-c1ccc(C(F)(F)F)c(Cl)c1C(c1cc(O)ccc1F)=N[C@H]2C [Example 17, 4-fluoro-3-[(4S)-7-chloro-1,4-dimethyl-8-(trifluoromethyl)-4H-[1,2,4]triazolo[4,3-a][1,4]benzodiazepin-6-yl]phenol] | 77% | 1.77 | – | –
6 | Cc1nnc2n1-c1ccc(Cl)c(Cl)c1C(c1cc(O)ccc1F)=NC2 [Example 3, 3-(7,8-dichloro-1-methyl-4H-[1,2,4]triazolo[4,3-a][1,4]benzodiazepin-6-yl)-4-fluoro-phenol] | 67% | 1.67 | 5.44 nM | –
7 | C[C@@H]1N=C(c2nc(O)ccc2F)c2c(ccc(C(F)(F)F)c2Cl)-n2cc(C(=O)N3CCC3)nc21 [Example 30, azetidin-1-yl-[(4S)-7-chloro-6-(3-fluoro-6-hydroxy-2-pyridyl)-4-methyl-8-(trifluoromethyl)-4H-imidazo[1,2-a][1,4]benzodiazepin-2-yl]methanone] | 120% | 2.20 | – | –
8 | O=c1ccn2c(n1)CN=C(c1cc(O)ccc1F)c1c-2ccc(C(F)(F)F)c1Cl [Example 11, 8-chloro-7-(2-fluoro-5-hydroxy-phenyl)-9-(trifluoromethyl)-5H-pyrimido[1,2-a][1,4]benzodiazepin-3-one] | 68% | 1.68 | 5.17 nM | –
9 | Cc1cnc2n1-c1ccc(C(F)(F)F)c(Cl)c1C(c1nc(O)ccc1F)=N[C@H]2C [Example 23, 6-[(4S)-7-chloro-1,4-dimethyl-8-(trifluoromethyl)-4H-imidazo[1,2-a][1,4]benzodiazepin-6-yl]-5-fluoro-pyridin-2-ol] | 68% | 1.68 | – | –
10 | CN1C(=O)CN=C(c2c(F)ccc(O)c2F)c2c1ccc(Cl)c2Cl [Example 12, 6,7-dichloro-5-(2,6-difluoro-3-hydroxy-phenyl)-1-methyl-3H-1,4-benzodiazepin-2-one] | 99% | 1.99 | – | –
11 | C[C@@H]1N=C(c2cc(O)ccc2F)c2c(ccc(Cl)c2Cl)-n2ccc(=O)nc21 [Example 5, (5S)-8,9-dichloro-7-(2-fluoro-5-hydroxy-phenyl)-5-methyl-5H-pyrimido[1,2-a][1,4]benzodiazepin-3-one] | 46% | 1.46 | 3.3 nM | –
12 | Cc1cn2c(n1)[C@H](C)N=C(c1nc(O)ccc1F)c1c-2ccc(C(F)(F)F)c1Cl [Example 28, 6-[(4S)-7-chloro-2,4-dimethyl-8-(trifluoromethyl)-4H-imidazo[1,2-a][1,4]benzodiazepin-6-yl]-5-fluoro-pyridin-2-ol] | 68% | 1.68 | 19.9 nM | –
13 | Cc1nc2n(n1)-c1ccc(C(F)(F)F)c(Cl)c1C(c1nc(O)ccc1Cl)=N[C@H]2C [Example 29, 5-chloro-6-[(4S)-7-chloro-2,4-dimethyl-8-(trifluoromethyl)-4H-[1,2,4]triazolo[1,5-a][1,4]benzodiazepin-6-yl]pyridin-2-ol] | 70% | 1.70 | – | –
14 | O=c1ccn2c(n1)CN=C(c1c(F)ccc(O)c1F)c1c-2ccc(Cl)c1Cl [Example 14, 8,9-dichloro-7-(2,6-difluoro-3-hydroxy-phenyl)-5H-pyrimido[1,2-a][1,4]benzodiazepin-3-one] | 68% | 1.68 | – | –
15 | CN1C(=O)CN=C(c2cc(O)ccc2F)c2c1ccc(Cl)c2Cl [Example 1, 6,7-dichloro-5-(2-fluoro-5-hydroxy-phenyl)-1-methyl-3H-1,4-benzodiazepin-2-one] | 90% | 1.90 | 2.9 nM | 2.9 nM
16 | Cc1nnc2n1-c1ccc(C(F)(F)F)c(Cl)c1C(c1nc(O)ccc1F)=N[C@H]2C [Example 20, 6-[(4S)-7-chloro-1,4-dimethyl-8-(trifluoromethyl)-4H-[1,2,4]triazolo[4,3-a][1,4]benzodiazepin-6-yl]-5-fluoro-pyridin-2-ol] | 120% | 2.20 | 68.1 nM | –
17 | O=c1ccn2c(n1)CN=C(c1cc(O)ccc1F)c1c-2ccc(Cl)c1Cl [Example 6, 8,9-dichloro-7-(2-fluoro-5-hydroxy-phenyl)-5H-pyrimido[1,2-a][1,4]benzodiazepin-3-one] | 92% | 1.92 | – | –
18 | CN1C(=O)CN=C(c2cc(O)ccc2F)c2c1ccc(C(F)(F)F)c2Cl [Example 8, 6-chloro-5-(2-fluoro-5-hydroxy-phenyl)-1-methyl-7-(trifluoromethyl)-3H-1,4-benzodiazepin-2-one] | 75% | 1.75 | 5.43 nM | –
19 | C[C@@H]1N=C(c2c(F)ccc(O)c2F)c2c(ccc(Cl)c2Cl)-n2ccc(=O)nc21 [Example 18, (5S)-8,9-dichloro-7-(2,6-difluoro-3-hydroxy-phenyl)-5-methyl-5H-pyrimido[1,2-a][1,4]benzodiazepin-3-one] | 57% | 1.57 | – | –
20 | Cc1nnc2n1-c1ccc(Cl)c(Cl)c1C(c1c(F)ccc(O)c1F)=NC2 [Example 13, 3-(7,8-dichloro-1-methyl-4H-[1,2,4]triazolo[4,3-a][1,4]benzodiazepin-6-yl)-2,4-difluoro-phenol] | 72% | 1.72 | – | –
21 | COC1CN(C(=O)c2ncn3c2CN=C(c2cc(O)ccc2F)c2c-3ccc(C(F)(F)F)c2Cl)C1 [Example 15, [7-chloro-6-(2-fluoro-5-hydroxy-phenyl)-8-(trifluoromethyl)-4H-imidazo[1,5-a][1,4]benzodiazepin-3-yl]-(3-methoxyazetidin-1-yl)methanone] | 80% | 1.80 | – | –
22 | COC1CN(C(=O)c2nc3n(n2)-c2ccc(Cl)c(Cl)c2C(c2cc(O)ccc2F)=NC3)C1 [Example 7, [7,8-dichloro-6-(2-fluoro-5-hydroxy-phenyl)-4H-[1,2,4]triazolo[1,5-a][1,4]benzodiazepin-2-yl]-(3-methoxyazetidin-1-yl)methanone] | 65% | 1.65 | – | –
